In brackets after ≈: the same amount, converted by molar mass. Peptide text beside a SMILES is read from it. * marks the point of attachment. Stearoyl = CCCCCCCCCCCCCCCCCC(=O)*
Key:
[1] = Body weight of mice during the antitumor assay; type: in vivo; settings: tumor-bearing nude mice
[2] = system: MDA-MB-231 cells; experiment: Cytotoxicity test by MTT assay, MDA-MB-231; type: cell-based; settings: Homo sapiens, MDA-MB-231, 48 h
[3] = system: MDA-MB-231 tumors; experiment: H&E staining and immunohistochemical analysis; type: in vivo, nude mice; settings: tumor sections at 14 days, n=5
[4] = In vivo pharmacokinetic studies of PTX; set-up: species or system Sprague Dawley rats
[5] = system: HUVECs; experiment: Transwell cell migration assay; type: cell-based, Human; settings: 24 hours, Avstin 10 µg/mL, S-HM-3, TSm, HTSm 9 µg/mL, n=3
[6] = Encapsulation efficiency and drug loading of micelles; type: physicochemical; settings: S-HM-3 concentration ranging from 0.1 to 0.7 mg/mL; data not shown
[7] = In vivo distribution studies of S-HM-3; set-up: species or system nude mice; settings: MDA-MB-231 tumor-bearing mice, vein injection, free S-HM-3
[8] = In vivo pharmacokinetic studies of S-HM-3; set-up: species or system Sprague Dawley rats; settings: rat, background statement of the abstract
[9] = male, Sprague Dawley, rat, plasma, iv, 7 mg/kg

Compound	toxicity judged from body weight ([1]; regimen of Table 1)	weight loss of mice during the 0–10 days ([1]; regimen of Table 1)	IC50 [2]	antiangiogenesis effect (CD31, microvessel density) [3]	V1 of PTX ([4]; SD rats, i.v. single dose, 7 mg/kg PTX)	CL of PTX ([4]; SD rats, i.v. single dose, 7 mg/kg PTX, 7 mg/kg)	Vd [4, 9]	half-life [4, 9]	endothelial cell MI rate (migration inhibition rate) [5]	encapsulation efficiency of S-HM-3 [6]	time at which S-HM-3 in organs reached the peak [7]	time at which S-HM-3 was nearly cleared from organs [7]	body weight of mice during the test period ([1]; regimen of Table 1, 14 days)	half-life [8]	apoptosis in tumor cells (positive p53 rate) [3]
CC(=O)O[C@H]1C(=O)[C@@]2(C)[C@H]([C@H](OC(=O)c3ccccc3)[C@]3(O)C[C@H](OC(=O)[C@H](O)[C@@H](NC(=O)c4ccccc4)c4ccccc4)C(C)=C1C3(C)C)[C@]1(OC(C)=O)CO[C@@H]1C[C@@H]2O [PTX, Paclitaxel]	high toxicity	obvious	1.37 µg/mL (≈ 1.6 µM)	almost the same antiangiogenesis effect	0.62 ± 0.08 L/kg	21.5 ± 2.83 mL/min/kg	3.34 ± 0.5 L/kg	1.79 ± 0.13 h	–	–	–	–	–	–	–
CCCCCCCCCCCCCCCCCC(=O)N[C@H](C(=O)N[C@H](C(=O)N[C@@H](CCCNC(=N)N)C(=O)N[C@@H](CCCNC(=N)N)C(=O)N[C@@H](C)C(=O)N[C@@H](CC(=O)O)C(=O)N[C@@H](CCCNC(=N)N)C(=O)N[C@@H](C)C(=O)N[C@@H](C)C(=O)N[C@H](C(=O)N1CCC[C@H]1C(=O)NCC(=O)NCC(=O)NCC(=O)NCC(=O)N[C@@H](CCCNC(=N)N)C(=O)NCC(=O)N[C@@H](CC(=O)O)C(=O)O)C(C)C)C(C)C)[C@@H](C)CC [S-HM-3] (Stearoyl-IVRRADRAAVPGGGGRGD-OH; N-terminus and C-terminus assumed)	very low toxicity or nontoxic	–	–	almost the same antiangiogenesis effect	–	–	–	–	60.55%	> 97%	24 min	60 min	significantly increased	0.417 h	did not induce significant apoptosis
Avstin: positive control of the cell migration assay, 10 µg/mL	–	–	–	–	–	–	–	–	69.89%	–	–	–	–	–	–

From article PMC6369847 (International Journal of Nanomedicine, 2019)
